# Experimental data published in patent publication US20260001928A1 (CORTERIA PHARMACEUTICALS, priority 2022, published 2026).
# *1 amine or outer side, *2 acyl side, *3 side chain or, on linkers, in order; H or OH if unused. Where a SMILES comes first, the peptide text is derived from it. Side-chain parts run from the residue outwards. [ ]: non-standard residue; d: D form. The star is where a group is joined. C18 diacid = O=C(O)CCCCCCCCCCCCCCCCC(=O)*; C16 diacid = O=C(O)CCCCCCCCCCCCCCC(=O)*; γGlu = O=C(O)[C@H](CCC(=O)[*:2])N[*:1]; C14 diacid = O=C(O)CCCCCCCCCCCCC(=O)*; NMeI = CC[C@H](C)[C@H](NC)C(=O)O; Api = NC1(C(=O)O)CCNCC1; AEEA = NCCOCCOCC(=O)O; Aib = CC(C)(N)C(=O)O
# Legend:
# [1] = molecular target: T1, human CRF2a receptor (Homo sapiens, UniProt Q13324); experiment: Activity at human CRF2a receptor, cAMP functional assay in TeloHEAC cells; assay type: cell-based; conditions: TeloHEAC cells stably expressing human CRF2a receptor, relative to urocortin 2 (100 nM = 100%)
# T1 construct: expressed in transfected cells; host or cells: TeloHEAC cells
# T1 sequence (Q13324 1-411): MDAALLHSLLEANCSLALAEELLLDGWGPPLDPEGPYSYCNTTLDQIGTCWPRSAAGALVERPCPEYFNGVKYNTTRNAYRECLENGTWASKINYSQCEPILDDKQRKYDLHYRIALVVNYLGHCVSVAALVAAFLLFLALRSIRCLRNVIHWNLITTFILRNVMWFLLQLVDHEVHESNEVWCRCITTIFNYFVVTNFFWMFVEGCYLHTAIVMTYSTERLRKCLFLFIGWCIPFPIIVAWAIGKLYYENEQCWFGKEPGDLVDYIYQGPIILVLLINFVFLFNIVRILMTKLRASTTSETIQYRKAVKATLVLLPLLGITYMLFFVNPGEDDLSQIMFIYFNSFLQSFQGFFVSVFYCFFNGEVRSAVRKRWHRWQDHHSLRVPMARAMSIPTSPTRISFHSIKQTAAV
# Outline: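 cAMP accumulation was measured by HTRF 665/620 nm ratio after 30 min at 37° C compound exposure (16 twofold dilutions) of CRF2a-expressing TeloHEAC cells, 10000/well, in HEPES-buffered HBSS plus IBMX. Activity was normalised to urocortin 2 at 100 nM (100%), and EC50 was the concentration giving half-maximal activation.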
# [2] = molecular target: T2, CFR1R receptor (Homo sapiens, UniProt P34998); experiment: Activity at anti-target CFR1R receptor, cAMP assay in CRF1R-overexpression CHO-K1 cells; assay type: cell-based; conditions: 100% = Sauvagine at 100 nM; for EC50: cAMP
# T2 construct: host or cells: CHO-K1 (clone 2)
# T2 sequence (P34998 24-415): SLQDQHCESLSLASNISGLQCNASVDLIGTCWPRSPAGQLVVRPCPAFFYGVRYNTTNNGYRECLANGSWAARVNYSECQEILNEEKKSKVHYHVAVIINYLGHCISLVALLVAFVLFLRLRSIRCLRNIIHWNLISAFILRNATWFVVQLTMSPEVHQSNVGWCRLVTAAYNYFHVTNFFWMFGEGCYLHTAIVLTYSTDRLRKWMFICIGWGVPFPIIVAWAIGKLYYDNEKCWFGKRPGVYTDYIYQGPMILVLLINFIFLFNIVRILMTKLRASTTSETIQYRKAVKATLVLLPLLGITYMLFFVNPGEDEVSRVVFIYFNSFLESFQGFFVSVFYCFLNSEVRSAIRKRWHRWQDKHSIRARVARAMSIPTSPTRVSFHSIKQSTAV
# Outline: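 Clone 2 cells were cultured in F12 (Hams)/10% FBS/400 μg/ml G418 at 37° C./5% CO2, frozen in medium with 10% DMSO, and thawed vials used. The protocol followed the TeloHAEC procedure, with 4000 cells/well final and Sauvagine at 100 nM defining 100% activation.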
SMILES,EC50 [1] [nM],Emax (% I) [2] [% I],EC50 [2] [nM]
CC[C@H](C)[C@H](NC(C)=O)C(=O)N[C@H](C(=O)N[C@@H](CC(C)C)C(=O)N[C@@H](CO)C(=O)N[C@@H](CC(C)C)C(=O)N[C@@H](CC(=O)O)C(=O)N[C@@H](C(=O)N1CCC[C@H]1C(=O)N[C@H](C(=O)N[C@@H](CCCCN)C(=O)N[C@@H](CC(C)C)C(=O)N[C@@H](CCCCNC(=O)CC[C@H](NC(=O)CCCCCCCCCCCCCCC(=O)O)C(=O)O)C(=O)N[C@@H](CCC(N)=O)C(=O)N[C@H](C(=O)N[C@@H](CC(C)C)C(=O)N[C@@H](CC(C)C)C(=O)N[C@@H](CCCCN)C(=O)N[C@@H](CCC(N)=O)C(=O)N[C@@H](CCC(=O)O)C(=O)N[C@@H](CCCNC(=N)N)C(=O)N[C@@H](CCC(N)=O)C(=O)N[C@@H](CCCCN)C(=O)N[C@@H](CCCCN)C(=O)N[C@@H](CCC(N)=O)C(=O)N[C@@H](CCCNC(=N)N)C(=O)N[C@@H](CCC(=O)O)C(=O)N[C@@H](CCC(N)=O)C(=O)N[C@@H](C)C(=O)N[C@@H](CCC(=O)O)C(=O)N[C@@H](CCCCN)C(=O)N[C@@H](CC(N)=O)C(=O)N[C@@H](CCC(=O)O)C(=O)N[C@@H](CCC(N)=O)C(=O)N[C@H](C(=O)N[C@@H](CC(C)C)C(=O)N[C@@H](CCC(=O)O)C(=O)N[C@@H](CCC(N)=O)C(=O)N[C@H](C(N)=O)C(C)C)[C@@H](C)CC)[C@@H](C)CC)[C@@H](C)CC)C(C)C)C(C)C [compound 17] (Ac-IVLSLD[dV]PIKLK([γGlu-C16 diacid])QILLKQERQKKQREQAEKNEQILEQV-NH2),0.21,12,> 250
CC[C@H](C)[C@H](NC(C)=O)C(=O)N[C@H](C(=O)N[C@@H](CC(C)C)C(=O)N[C@@H](CO)C(=O)N[C@@H](CC(C)C)C(=O)N[C@@H](CC(=O)O)C(=O)N[C@@H](C(=O)N1CCC[C@H]1C(=O)N[C@H](C(=O)N[C@@H](CCCCN)C(=O)N[C@@H](CC(C)C)C(=O)N[C@@H](CCCCNC(=O)CC[C@H](NC(=O)CCCCCCCCCCCCCCC(=O)O)C(=O)O)C(=O)N[C@@H](CCCCN)C(=O)N[C@H](C(=O)N[C@@H](CC(C)C)C(=O)N[C@@H](CC(C)C)C(=O)N[C@@H](CCC(=O)O)C(=O)N[C@@H](CCC(N)=O)C(=O)N[C@@H](CCC(=O)O)C(=O)N[C@@H](CCCCN)C(=O)N[C@@H](CCC(N)=O)C(=O)N[C@@H](C)C(=O)N[C@@H](CCCCN)C(=O)N[C@@H](CCC(N)=O)C(=O)N[C@@H](CCCNC(=N)N)C(=O)N[C@@H](CCC(=O)O)C(=O)N[C@@H](CCC(N)=O)C(=O)N[C@@H](C)C(=O)N[C@@H](CCC(=O)O)C(=O)N[C@H](C(=O)N[C@@H](CC(N)=O)C(=O)NC(C)(C)C(=O)N[C@@H](CCC(N)=O)C(=O)N[C@H](C(=O)N[C@@H](CC(C)C)C(=O)N[C@@H](C)C(=O)N[C@@H](CCC(N)=O)C(=O)N[C@H](C(N)=O)C(C)C)[C@@H](C)CC)[C@@H](C)O)[C@@H](C)CC)[C@@H](C)CC)C(C)C)C(C)C [compound 166] (Ac-IVLSLD[dV]PIKLK([γGlu-C16 diacid])KILLEQEKQAKQREQAETN[Aib]QILAQV-NH2),0.77,5,> 250
CC[C@H](C)[C@H](NC(C)=O)C(=O)N[C@H](C(=O)N[C@@H](CC(C)C)C(=O)N[C@@H](CO)C(=O)N[C@@H](CC(C)C)C(=O)N[C@@H](CC(=O)O)C(=O)N[C@@H](C(=O)N1CCC[C@H]1C(=O)N[C@H](C(=O)NCC(=O)N[C@@H](CC(C)C)C(=O)N[C@@H](CCCCNC(=O)CC[C@H](NC(=O)CCCCCCCCCCCCCCCCC(=O)O)C(=O)O)C(=O)N[C@@H](CCCCN)C(=O)N[C@H](C(=O)N[C@@H](CC(C)C)C(=O)N[C@@H](CC(C)C)C(=O)N[C@@H](CCC(=O)O)C(=O)N[C@@H](CCC(N)=O)C(=O)N[C@@H](CCC(=O)O)C(=O)N[C@@H](CCCCN)C(=O)N[C@@H](CCC(N)=O)C(=O)N[C@@H](CCCCN)C(=O)N[C@@H](CCCCN)C(=O)N[C@@H](CCC(N)=O)C(=O)N[C@@H](CCCNC(=N)N)C(=O)N[C@@H](CCC(=O)O)C(=O)N[C@@H](CCC(N)=O)C(=O)N[C@@H](C)C(=O)N[C@@H](CCC(=O)O)C(=O)N[C@H](C(=O)N[C@@H](CC(N)=O)C(=O)NC(C)(C)C(=O)N[C@@H](CCC(N)=O)C(=O)N[C@H](C(=O)N[C@@H](CC(C)C)C(=O)N[C@@H](C)C(=O)N[C@@H](CCC(N)=O)C(=O)N[C@H](C(N)=O)C(C)C)[C@@H](C)CC)[C@@H](C)O)[C@@H](C)CC)[C@@H](C)CC)C(C)C)C(C)C [compound 191] (Ac-IVLSLD[dV]PIGLK([γGlu-C18 diacid])KILLEQEKQKKQREQAETN[Aib]QILAQV-NH2),0.18,54,
CC[C@H](C)[C@H](NC)C(=O)N[C@H](C(=O)N[C@@H](CC(C)C)C(=O)N[C@@H](CO)C(=O)N[C@@H](CC(C)C)C(=O)N[C@@H](CC(=O)O)C(=O)N[C@@H](C(=O)N1CCC[C@H]1C(=O)N[C@H](C(=O)N[C@@H](CCCCN)C(=O)N[C@@H](CC(C)C)C(=O)N[C@@H](CCCCNC(=O)COCCOCCNC(=O)COCCOCCNC(=O)CC[C@H](NC(=O)CCCCCCCCCCCCCCCCC(=O)O)C(=O)O)C(=O)N[C@@H](CCCCN)C(=O)N[C@H](C(=O)N[C@@H](CC(C)C)C(=O)N[C@@H](CC(C)C)C(=O)N[C@@H](CCC(=O)O)C(=O)N[C@@H](CCC(N)=O)C(=O)N[C@@H](CCC(=O)O)C(=O)N[C@@H](CCCCN)C(=O)N[C@@H](CCC(N)=O)C(=O)N[C@@H](CCCCN)C(=O)N[C@@H](CCCCN)C(=O)N[C@@H](CCC(N)=O)C(=O)N[C@@H](CCCNC(=N)N)C(=O)N[C@@H](CCC(=O)O)C(=O)N[C@@H](CCC(N)=O)C(=O)N[C@@H](C)C(=O)N[C@@H](CCC(=O)O)C(=O)N[C@H](C(=O)N[C@@H](CC(N)=O)C(=O)NC1(C(=O)N[C@@H](CCC(N)=O)C(=O)N[C@H](C(=O)N[C@@H](CC(C)C)C(=O)N[C@@H](C)C(=O)N[C@@H](CCC(N)=O)C(=O)N[C@H](C(N)=O)C(C)C)[C@@H](C)CC)CCNCC1)[C@@H](C)O)[C@@H](C)CC)[C@@H](C)CC)C(C)C)C(C)C [compound 117] (H-[NMeI]VLSLD[dV]PIKLK([AEEA-AEEA-γGlu-C18 diacid])KILLEQEKQKKQREQAETN[Api]QILAQV-NH2),0.63,3,> 250
CC[C@H](C)[C@H](NC)C(=O)N[C@H](C(=O)N[C@@H](CC(C)C)C(=O)N[C@@H](CO)C(=O)N[C@@H](CC(C)C)C(=O)N[C@@H](CC(=O)O)C(=O)N[C@@H](C(=O)N1CCC[C@H]1C(=O)N[C@H](C(=O)N[C@@H](CCCCN)C(=O)N[C@@H](CC(C)C)C(=O)N[C@@H](CCCCNC(=O)COCCOCCNC(=O)COCCOCCNC(=O)CC[C@H](NC(=O)CC[C@H](NC(=O)CCCCCCCCCCCCC(=O)O)C(=O)O)C(=O)O)C(=O)N[C@@H](CCCCN)C(=O)N[C@H](C(=O)N[C@@H](CC(C)C)C(=O)N[C@@H](CC(C)C)C(=O)N[C@@H](CCC(=O)O)C(=O)N[C@@H](CCC(N)=O)C(=O)N[C@@H](CCC(=O)O)C(=O)N[C@@H](CCCCN)C(=O)N[C@@H](CCC(N)=O)C(=O)N[C@@H](CCCCN)C(=O)N[C@@H](CCCCN)C(=O)N[C@@H](CCC(N)=O)C(=O)N[C@@H](CCCNC(=N)N)C(=O)N[C@@H](CCC(=O)O)C(=O)N[C@@H](CCC(N)=O)C(=O)N[C@@H](C)C(=O)N[C@@H](CCC(=O)O)C(=O)N[C@H](C(=O)N[C@@H](CC(N)=O)C(=O)NC(C)(C)C(=O)N[C@@H](CCC(N)=O)C(=O)N[C@H](C(=O)N[C@@H](CC(C)C)C(=O)N[C@@H](C)C(=O)N[C@@H](CCC(N)=O)C(=O)N[C@H](C(N)=O)C(C)C)[C@@H](C)CC)[C@@H](C)O)[C@@H](C)CC)[C@@H](C)CC)C(C)C)C(C)C [compound 179] (H-[NMeI]VLSLD[dV]PIKLK([AEEA-AEEA-γGlu-γGlu-C14 diacid])KILLEQEKQKKQREQAETN[Aib]QILAQV-NH2),15.5,−4,> 250
